Biological target: T1, Chk1 (Homo sapiens, UniProt O14757)
T1 construct: purchased Upstate Biotechnology
T1 sequence (O14757 1-476): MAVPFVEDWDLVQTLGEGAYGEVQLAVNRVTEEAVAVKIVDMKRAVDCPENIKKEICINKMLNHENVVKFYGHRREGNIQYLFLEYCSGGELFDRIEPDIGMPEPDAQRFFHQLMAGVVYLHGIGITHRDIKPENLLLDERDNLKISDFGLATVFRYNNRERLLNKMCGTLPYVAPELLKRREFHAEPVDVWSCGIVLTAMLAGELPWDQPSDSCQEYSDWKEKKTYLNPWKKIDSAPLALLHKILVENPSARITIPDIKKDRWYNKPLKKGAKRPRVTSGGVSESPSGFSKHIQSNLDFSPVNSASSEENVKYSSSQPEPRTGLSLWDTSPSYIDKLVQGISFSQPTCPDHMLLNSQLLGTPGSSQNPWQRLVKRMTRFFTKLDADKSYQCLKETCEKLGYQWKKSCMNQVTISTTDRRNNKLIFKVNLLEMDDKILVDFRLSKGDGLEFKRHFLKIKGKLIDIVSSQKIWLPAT
Experiment: Chk1 kinase assay: incorporation of γ-33P ATP into immobilized myelin basic protein
Assay type: biochemical
Settings: Table 11, Chk1 only; class symbols A-D; read-out: Chk1 IC50
Summary of the method: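 Plates coated with MBP, then kinase reactions in Hepes pH 7.6 buffer with 10 mM MgCl2 and 1% DMSO were started by adding unlabeled plus γ-33P ATP (10 μM for Chk1 at 10 nM enzyme; 30 μM for Chk2 at 20 nM enzyme). After 1 h at room temperature, plates were washed and counted.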

Row | Compound | IC50 [nM]
1 | Nc1ncc(-c2cccc(CNS(=O)(=O)c3ccc4c(c3)OCCO4)c2)nc1C(=O)N[C@H]1CCCNC1 [Example 937, 3-amino-6-(3-{[(2,3-dihydro-1,4-benzodioxin-6-ylsulfonyl)amino]methyl}phenyl)-N-[(3S)-piperidin-3-yl]pyrazine-2-carboxamide] | < 50
2 | Nc1ncc(-c2cccc(CNC(=O)c3cccs3)c2)nc1C(=O)N[C@H]1CCCNC1 [Example 938, 3-amino-N-[(3S)-piperidin-3-yl]-6-(3-{[(2-thienylcarbonyl)amino]methyl}phenyl)pyrazine-2-carboxamide] | < 50
3 | Nc1ncc(-c2cccc(CNC(=O)C3COc4ccccc4O3)c2)nc1C(=O)N[C@H]1CCCNC1 (stereo partly drawn) [Example 939, 3-amino-6-(3-{[(2,3-dihydro-1,4-benzodioxin-2-ylcarbonyl)amino]methyl}phenyl)-N-[(3S)-piperidin-3-yl]pyrazine-2-carboxamide] | < 50
4 | Nc1ncc(-c2cccc(CNC(=O)c3ccccc3Cl)c2)nc1-c1nc([C@H]2CCCNC2)n[nH]1 [Example 940, N-{[3-(5-amino-6-{3-[(3S)-piperidin-3-yl]-1H-1,2,4-triazol-5-yl}pyrazin-2-yl)phenyl]methyl}-2-chlorobenzamide] | < 50
5 | Nc1ncc(-c2cccc(CNC(=O)c3ccc(Cl)cc3)c2)nc1-c1nc([C@H]2CCCNC2)n[nH]1 [Example 941, N-{[3-(5-amino-6-{3-[(3S)-piperidin-3-yl]-1H-1,2,4-triazol-5-yl}pyrazin-2-yl)phenyl]methyl}-4-chlorobenzamide] | < 50
6 | Nc1ncc(-c2cccc(CNC(=O)c3ccc(I)cc3)c2)nc1-c1nc([C@H]2CCCNC2)n[nH]1 [Example 942, N-{[3-(5-amino-6-{3-[(3S)-piperidin-3-yl]-1H-1,2,4-triazol-5-yl}pyrazin-2-yl)phenyl]methyl}-4-iodobenzamide] | < 50
7 | Nc1ncc(-c2cccc(CNC(=O)c3cc(F)cc(F)c3)c2)nc1-c1nc([C@H]2CCCNC2)n[nH]1 [Example 943, N-{[3-(5-amino-6-{3-[(3S)-piperidin-3-yl]-1H-1,2,4-triazol-5-yl}pyrazin-2-yl)phenyl]methyl}-3,5-difluorobenzamide] | < 50
8 | Nc1ncc(-c2cccc(CNC(=O)c3ccc(Br)cc3F)c2)nc1-c1nc([C@H]2CCCNC2)n[nH]1 [Example 944, N-{[3-(5-amino-6-{3-[(3S)-piperidin-3-yl]-1H-1,2,4-triazol-5-yl}pyrazin-2-yl)phenyl]methyl}-4-bromo-2-fluorobenzamide] | < 50
9 | Nc1ncc(-c2cccc(CNC(=O)c3ccc(Br)cc3Cl)c2)nc1-c1nc([C@H]2CCCNC2)n[nH]1 [Example 945, N-{[3-(5-amino-6-{3-[(3S)-piperidin-3-yl]-1H-1,2,4-triazol-5-yl}pyrazin-2-yl)phenyl]methyl}-4-bromo-2-chlorobenzamide] | < 50
10 | Nc1cc(-c2n[nH]c(-c3nc(-c4cccc(CN[C@H]5CCc6ccccc65)c4)cnc3N)n2)ccn1 [Example 946, 3-[3-(2-aminopyridin-4-yl)-1H-1,2,4-triazol-5-yl]-5-(3-{[(1S)-2,3-dihydro-1H-inden-1-ylamino]methyl}phenyl)pyrazin-2-amine] | < 50
11 | Nc1ncc(-c2cccc(CN[C@H]3CCc4ccccc43)c2)nc1C(=O)NC1CCCCNC1 (stereo partly drawn) [Example 947, 3-amino-N-azepan-3-yl-6-(3-{[(1S)-2,3-dihydro-1H-inden-1-ylamino]methyl}phenyl)pyrazine-2-carboxamide] | < 50
12 | Nc1ncc(-c2cccc(CNC(=O)c3csc(-c4cccs4)n3)c2)nc1C(=O)N[C@H]1CCCNC1 [Example 948, 3-amino-N-[(3S)-piperidin-3-yl]-6-{3-[({[2-(2-thienyl)-1,3-thiazol-4-yl]carbonyl}amino)methyl]phenyl}pyrazine-2-carboxamide] | < 50
13 | Nc1ncc(-c2cccc(CNC(=O)c3cncc(-c4cccs4)c3)c2)nc1C(=O)N[C@H]1CCCNC1 [Example 949, 3-amino-N-[(3S)-piperidin-3-yl]-6-{3-[({[5-(2-thienyl)pyridin-3-yl]carbonyl}amino)methyl]phenyl}pyrazine-2-carboxamide] | < 50
14 | CC(C)(C)c1ccc(CNC(=O)c2cccc(-c3cnc(N)c(C(=O)N[C@H]4CCCNC4)n3)c2)cc1 [Example 950, 3-amino-6-{3-[({[4-(1,1-dimethylethyl)phenyl]methyl}amino)carbonyl]phenyl}-N-[(3S)-piperidin-3-yl]pyrazine-2-carboxamide] | < 50
15 | Cc1cc(Cl)cc(Cl)c1CNC(=O)c1cccc(-c2cnc(N)c(C(=O)N[C@H]3CCCNC3)n2)c1 [Example 951, 3-amino-6-[3-({[(2,4-dichloro-6-methylphenyl)methyl]amino}carbonyl)phenyl]-N-[(3S)-piperidin-3-yl]pyrazine-2-carboxamide] | < 50
16 | Nc1ncc(-c2cccc(C(=O)NCc3cc(Cl)cc(Cl)c3)c2)nc1C(=O)N[C@H]1CCCNC1 [Example 952, 3-amino-6-[3-({[(3,5-dichlorophenyl)methyl]amino}carbonyl)phenyl]-N-[(3S)-piperidin-3-yl]pyrazine-2-carboxamide] | < 50
17 | Nc1ncc(-c2cccc(CNS(=O)(=O)c3cccs3)c2)nc1C(=O)N[C@H]1CCCNC1 [Example 953, 3-amino-N-[(3S)-piperidin-3-yl]-6-(3-{[(2-thienylsulfonyl)amino]methyl}phenyl)pyrazine-2-carboxamide] | < 50
18 | Nc1ncc(-c2cccc(CNS(=O)(=O)c3ccsc3)c2)nc1C(=O)N[C@H]1CCCNC1 [Example 954, 3-amino-N-[(3S)-piperidin-3-yl]-6-(3-{[(3-thienylsulfonyl)amino]methyl}phenyl)pyrazine-2-carboxamide] | < 50
19 | Nc1ncc(-c2cccc(CNS(=O)(=O)c3ccc(Cl)cc3)c2)nc1C(=O)N[C@H]1CCCNC1 [Example 955, 3-amino-6-[3-({[(4-chlorophenyl)sulfonyl]amino}methyl)phenyl]-N-[(3S)-piperidin-3-yl]pyrazine-2-carboxamide] | < 50
20 | Nc1ncc(-c2cccc(CNC(=O)Nc3ccc4c(c3)OCO4)c2)nc1C(=O)N[C@H]1CCCNC1 [Example 956, 3-amino-6-[3-({[(1,3-benzodioxol-5-ylamino)carbonyl]amino}methyl)phenyl]-N-[(3S)-piperidin-3-yl]pyrazine-2-carboxamide] | < 50
21 | COc1ccc(NC(=O)NCc2cccc(-c3cnc(N)c(C(=O)N[C@H]4CCCNC4)n3)c2)cc1 [Example 957, 3-amino-6-(3-{[({[4-(methyloxy)phenyl]amino}carbonyl)amino]methyl}phenyl)-N-[(3S)-piperidin-3-yl]pyrazine-2-carboxamide] | < 50
22 | Nc1ncc(-c2cccc(CNC(=O)Nc3ccc(F)cc3)c2)nc1C(=O)N[C@H]1CCCNC1 [Example 958, 3-amino-6-{3-[({[(4-fluorophenyl)amino]carbonyl}amino)methyl]phenyl}-N-[(3S)-piperidin-3-yl]pyrazine-2-carboxamide] | < 50
23 | CCN(CC)CCOc1cccc(-c2cnc(N)c(C(=O)N[C@H]3CCCNC3)n2)c1 [Example 959, 3-amino-6-(3-{[2-(diethylamino)ethyl]oxy}phenyl)-N-[(3S)-piperidin-3-yl]pyrazine-2-carboxamide] | < 50
24 | Nc1ncc(-c2cccc(OCCN3CCOCC3)c2)nc1C(=O)N[C@H]1CCCNC1 [Example 960, 3-amino-6-{3-[(2-morpholin-4-ylethyl)oxy]phenyl}-N-[(3S)-piperidin-3-yl]pyrazine-2-carboxamide] | 50 to 1000
25 | COc1cccc(-c2cnc(N)c(C(=O)N[C@H]3CCCNC3)n2)c1 [Example 961, 3-amino-6-[3-(methyloxy)phenyl]-N-[(3S)-piperidin-3-yl]pyrazine-2-carboxamide] | < 50
26 | CCOc1cccc(-c2cnc(N)c(C(=O)N[C@H]3CCCNC3)n2)c1 [Example 962, 3-amino-6-[3-(ethyloxy)phenyl]-N-[(3S)-piperidin-3-yl]pyrazine-2-carboxamide] | < 50
27 | Nc1ncc(-c2cccc(C(=O)NCc3ccc(-c4csnn4)cc3)c2)nc1C(=O)N[C@H]1CCCNC1 [Example 963, 3-amino-N-[(3S)-piperidin-3-yl]-6-{3-[({[4-(1,2,3-thiadiazol-4-yl)phenyl]methyl}amino)carbonyl]phenyl}pyrazine-2-carboxamide] | < 50
28 | CCNCCOc1cccc(-c2cnc(N)c(C(=O)N[C@H]3CCCNC3)n2)c1 [Example 964, 3-amino-6-(3-{[2-(ethylamino)ethyl]oxy}phenyl)-N-[(3S)-piperidin-3-yl]pyrazine-2-carboxamide] | < 50
29 | Nc1ncc(-c2cccc(OCCN3CCN(C(=O)OCc4ccccc4)CC3)c2)nc1C(=O)N[C@H]1CCCNC1 [Example 965, phenylmethyl 4-(2-{[3-(5-amino-6-{[(3S)-piperidin-3-ylamino]carbonyl}pyrazin-2-yl)phenyl]oxy}ethyl)piperazine-1-carboxylate] | < 50
30 | CN(C)c1ccc(NC(=O)NCc2cccc(-c3cnc(N)c(C(=O)N[C@H]4CCCNC4)n3)c2)cc1 [Example 966, 3-amino-6-(3-{[({[4-(dimethylamino)phenyl]amino}carbonyl)amino]methyl}phenyl)-N-[(3S)-piperidin-3-yl]pyrazine-2-carboxamide] | < 50
